Experimental data published in US20240335547A1, “MODIFIED CHOLIC ACID CONJUGATES” (priority 2022, published 2024).
≈ marks a conversion by molar mass, not a printed value.

Experiments:
Coronavirus 229E = experiment: "Disinfectant" experiments: virus pre-mixed with compound, then added to HFFs; assay type: cell-based; conditions: Human coronavirus 229E, 0.25 h; mixed with virus 15 minutes at room temperature before adding to HFFs
Experimental: In the “disinfectant” experiments, stock solution of Compound 12 was generated by dissolving the compound in 10% DMSO solution. Different amounts of Compound 12 from the stock solution were mixed with 10^4 PFU of Coronavirus 229E. After incubation at room temperature for 15 minutes, the mixture of virus and Compound 12 was added to the culture of primary human foreskin fibroblasts (HFFs). At 24 hours post-infection, culture medium was changed and the infected HFFs were further cultured in the absence of Compound 12. The level of inhibition of virus infection and production was determined.

Calu-3 cells = experiment: Cytotoxicity Assay (MTS); assay type: cell-based; conditions: 24 h
Experimental: Calu-3 cells were seeded in 96-well plates one day prior to testing. At 80-90% confluency, growth medium was removed and replaced with a medium containing 50 μg/mL of compound 12 dilutions. All treatments were added in quadruplicate or quintuplicate wells. Plates were incubated for 24 h before being washed and replaced with fresh untreated growth medium. MTS was added to each well as recommended by the manufacturer's protocol (CellTiter 96 Aqueous One Solution Cell Proliferation Assay, Promega, Madison, WI, USA) and incubated for 3-4 h.
After incubation, absorbance was measured at 490 nm on a SpectraMax M5 (Molecular Devices, LLC, San Jose, CA, USA) plate reader with SoftMax Pro 6.2.1 software.

[1] = tested on: Golgi apparatus, mitochondria, and endoplasmic reticulum (ER); assay type: cell-based, human
Description: The effect of compound 12 was studied on cellular structures and organelles such as Golgi apparatus, mitochondria, and endoplasmic reticulum (ER).

Pseudomonas = experiment: Bactericidal activity MIC/MBC; assay type: cell-based; conditions: Gram−
[2] = target: 3CL Protease (SARS-COV-2) (Severe acute respiratory syndrome coronavirus 2, UniProt P0DTD1); experiment: 3CL Protease (SARS-COV-2) Inhibitor Assay; assay type: biochemical
Experimental: The compound is dissolved in DMSO. A series of dilutions were prepared with 5% DMSO in 3CL Protease assay buffer. 10 μl of the dilution was added to a 50 μl reaction so that the final concentration of DMSO is 1% in all of the reactions. The compound was pre-incubated in duplicate at room temperature for 30 minutes in a mixture containing 3CL Pro assay buffer, 3CL enzyme and a test compound. After 30 minutes, the enzymatic reactions were initiated by the addition of 3CL Protease substrate. The enzymatic reaction proceeded for 4 hours at room temperature. Fluorescence intensity was measured at an excitation of 360 nm and an emission of 460 nm using a Tecan Infinite M1000 microplate reader.

[3] = Cytotoxicity in human primary cell cultures (Trypan Blue Staining); assay type: cell-based; conditions: human, CC50
Experimental: (1) HFF (human foreskin fibroblast) cells (2×105) were seeded with 2 ml of DMEM medium supplemented with 10% FBS in each well of two 12-well tissue culture plates. (2) Cells were cultured for 3 days. CSA-44 was added to test for cell toxicity. Eleven concentrations were tested: 40 μg/ml, 30 μg/ml, […], 17.5 μg/ml, 15 μg/ml, 12.5 μg/ml, 10 μg/ml, 7.5 μg/ml, 5 μg/ml, 2.5 μg/ml, and 1 μg/ml. Samples with concentration of 0 μg/ml were used as the control. Each concentration was tested in duplicates with two wells. (3) Cells were cultured for 48 hours with CSA-44. Trypan Blue Staining was used to determine the numbers of living and dead cells on a hemocytometer. Percentages of living and dead cells in each sample were calculated.
(1) HFF cells (2×105) were seeded with 2 ml of DMEM medium supplemented with 10% FBS in each well of two 12-well tissue culture plates. (2) Cells were cultured for 3 days. CMA Conjugate was added to test for cell toxicity. Eleven concentrations were tested. They were 100 μg/ml, 80 μg/ml, 60 μg/ml, 50 μg/ml, 40 μg/ml, 30 μg/ml, 25 μg/ml, 20 μg/ml, 15 μg/ml, 10 μg/ml, and 5 μg/ml. Samples with concentration of 0 μg/ml were used as the control. Each concentration was tested in duplicates with two wells. (3) Cells were cultured for 48 hours with CMA Conjugate. […] Percentages of living and dead cells in each sample were calculated.

C[C@H](CCC(=O)NCCNC(=O)CCCC[C@@H]1SCC2NC(=O)NC21)C1CCC2C3C(C[C@H](OC(=O)CCN)[C@@]21C)[C@@]1(C)CC[C@@H](OC(=O)CCN)CC1C[C@H]3OC(=O)CCN (stereo partly shown) [Compound 12]
EC50 (Coronavirus 229E): 500 µg/mL (≈ 562 µM)
IC50 (i.e., CC50) (Calu-3 cells): 154 µM
effect on overall structure and organization of cellular structures and organelles [1]: did not affect the overall structure and organization
MBC (Pseudomonas): 1060 µg/mL (≈ 1190 µM)
MIC (Pseudomonas): 530 µg/mL (≈ 595 µM)
IC50 [2]: > 10 µM
% Activity ([2]; 0.0003 μM, 2 repeats): 101%
activity at 0.0003 µM ([2]; 0.0003 μM, 2 repeats): 99%
activity at 0.001 µM ([2]; 0.001 μM, 2 repeats): 103%
activity at 0.003 µM ([2]; 0.003 μM, 2 repeats): 103%
% Activity ([2]; 0.01 μM, 2 repeats): 100%
activity at 0.01 µM ([2]; 0.01 μM, 2 repeats): 96%
activity at 0.03 µM ([2]; 0.03 μM, 2 repeats): 95%
% Activity ([2]; 0.1 μM, 2 repeats): 89%
activity at 0.1 µM ([2]; 0.1 μM, 2 repeats): 90%
% Activity ([2]; 0.3 μM, 2 repeats): 88%
activity at 0.3 µM ([2]; 0.3 μM, 2 repeats): 91%
% Activity ([2]; 1 μM, 2 repeats): 89%
activity at 1 µM ([2]; 1 μM, 2 repeats): 90%
% Activity ([2]; 3 μM, 2 repeats): 79%
activity at 3 µM ([2]; 3 μM, 2 repeats): 82%
inhibition at 10 µM ([2]; 10 μM): 24%
% Activity ([2]; 10 μM, 2 repeats): 77%
activity at 10 µM ([2]; 10 μM, 2 repeats): 75%
CC50 at 48 h [3]: ~65 µg/mL (≈ 73 µM)
